Measurements reported in PMC10176470, “Engaging a Non-catalytic Cysteine Residue Drives Potent and Selective Inhibition of Caspase-6” (Journal of the American Chemical Society, 2023).

Columns and labels:
Type in all cases: cell-based
[1] = target: proteins of HEK293T cells transiently overexpressing caspase-6 (Homo sapiens, UniProt P06744); conditions: protein GPI (P06744), analysis C6
[2] = target: proteins of HEK293T cells transiently overexpressing caspase-6 (Homo sapiens, UniProt O75533); conditions: exp_ref Probe; protein SF3B1 (O75533); analysis C6
[3] = target: T1, proteins of HEK293T cells transiently overexpressing caspase-6 (Homo sapiens, UniProt Q14697); conditions: protein GANAB (Q14697)
T1 sequence (Q14697 29-944): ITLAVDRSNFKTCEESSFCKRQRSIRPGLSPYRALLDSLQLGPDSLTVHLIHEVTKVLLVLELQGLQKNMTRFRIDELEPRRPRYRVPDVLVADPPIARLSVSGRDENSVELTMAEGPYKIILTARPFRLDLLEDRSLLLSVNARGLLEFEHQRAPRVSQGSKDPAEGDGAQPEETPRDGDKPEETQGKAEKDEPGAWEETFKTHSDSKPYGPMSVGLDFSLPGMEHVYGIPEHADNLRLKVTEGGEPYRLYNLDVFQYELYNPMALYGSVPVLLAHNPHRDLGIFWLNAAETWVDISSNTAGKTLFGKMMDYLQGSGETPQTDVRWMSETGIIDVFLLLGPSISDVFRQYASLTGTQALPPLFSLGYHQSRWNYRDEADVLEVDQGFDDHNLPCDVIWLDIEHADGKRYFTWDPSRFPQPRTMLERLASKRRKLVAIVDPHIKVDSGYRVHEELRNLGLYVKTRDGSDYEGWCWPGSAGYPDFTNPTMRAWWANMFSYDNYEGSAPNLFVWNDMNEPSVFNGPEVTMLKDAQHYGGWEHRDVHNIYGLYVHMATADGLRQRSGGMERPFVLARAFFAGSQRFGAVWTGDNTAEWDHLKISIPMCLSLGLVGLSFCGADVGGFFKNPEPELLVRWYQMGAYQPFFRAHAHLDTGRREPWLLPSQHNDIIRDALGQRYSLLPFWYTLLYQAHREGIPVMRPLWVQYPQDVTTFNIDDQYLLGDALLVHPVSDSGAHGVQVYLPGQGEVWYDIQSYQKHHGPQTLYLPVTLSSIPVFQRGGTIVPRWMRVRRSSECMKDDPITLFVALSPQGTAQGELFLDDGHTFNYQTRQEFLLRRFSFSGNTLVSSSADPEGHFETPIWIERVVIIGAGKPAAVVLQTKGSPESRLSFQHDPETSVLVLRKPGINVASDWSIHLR

[4] = target: proteins of HEK293T cells transiently overexpressing caspase-6 (Homo sapiens, UniProt Q92900); conditions: Probe; protein UPF1 Q92900
Sequence of proteins of HEK293T cells transiently overexpressing caspase-6 (Homo sapiens, UniProt Q92900) (Q92900 whole entry): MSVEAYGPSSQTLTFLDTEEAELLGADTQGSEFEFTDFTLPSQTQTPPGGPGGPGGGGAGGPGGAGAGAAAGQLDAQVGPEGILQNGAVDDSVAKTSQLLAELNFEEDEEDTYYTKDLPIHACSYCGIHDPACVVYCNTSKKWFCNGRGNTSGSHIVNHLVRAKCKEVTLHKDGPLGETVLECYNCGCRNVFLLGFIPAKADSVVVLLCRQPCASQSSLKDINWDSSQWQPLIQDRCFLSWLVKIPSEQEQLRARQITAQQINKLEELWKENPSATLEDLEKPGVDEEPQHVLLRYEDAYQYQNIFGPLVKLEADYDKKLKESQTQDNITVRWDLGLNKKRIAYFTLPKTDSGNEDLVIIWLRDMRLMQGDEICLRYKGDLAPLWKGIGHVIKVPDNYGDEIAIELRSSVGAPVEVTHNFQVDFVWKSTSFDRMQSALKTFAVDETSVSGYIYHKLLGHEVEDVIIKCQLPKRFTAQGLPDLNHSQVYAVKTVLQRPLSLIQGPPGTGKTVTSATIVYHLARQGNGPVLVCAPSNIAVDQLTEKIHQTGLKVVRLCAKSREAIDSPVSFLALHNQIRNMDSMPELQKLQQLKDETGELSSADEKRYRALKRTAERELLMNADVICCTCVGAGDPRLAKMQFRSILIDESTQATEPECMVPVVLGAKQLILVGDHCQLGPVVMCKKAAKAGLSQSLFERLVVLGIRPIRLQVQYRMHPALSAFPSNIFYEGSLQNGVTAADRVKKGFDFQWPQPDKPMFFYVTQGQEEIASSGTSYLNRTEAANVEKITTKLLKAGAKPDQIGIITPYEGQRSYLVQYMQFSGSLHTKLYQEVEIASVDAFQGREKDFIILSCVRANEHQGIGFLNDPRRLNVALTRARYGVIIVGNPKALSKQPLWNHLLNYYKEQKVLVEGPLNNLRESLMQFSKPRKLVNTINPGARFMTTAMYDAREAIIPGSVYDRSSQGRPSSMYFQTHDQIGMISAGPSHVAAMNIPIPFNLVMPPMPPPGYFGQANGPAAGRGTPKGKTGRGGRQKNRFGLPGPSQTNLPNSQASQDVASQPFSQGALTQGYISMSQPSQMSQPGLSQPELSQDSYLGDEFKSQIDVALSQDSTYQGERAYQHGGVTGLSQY

[5] = target: proteins of HEK293T cells transiently overexpressing caspase-6 (Homo sapiens, UniProt P16615); conditions: protein ATP2A2 (P16615)
Sequence of proteins of HEK293T cells transiently overexpressing caspase-6 (Homo sapiens, UniProt P16615) (P16615 whole entry): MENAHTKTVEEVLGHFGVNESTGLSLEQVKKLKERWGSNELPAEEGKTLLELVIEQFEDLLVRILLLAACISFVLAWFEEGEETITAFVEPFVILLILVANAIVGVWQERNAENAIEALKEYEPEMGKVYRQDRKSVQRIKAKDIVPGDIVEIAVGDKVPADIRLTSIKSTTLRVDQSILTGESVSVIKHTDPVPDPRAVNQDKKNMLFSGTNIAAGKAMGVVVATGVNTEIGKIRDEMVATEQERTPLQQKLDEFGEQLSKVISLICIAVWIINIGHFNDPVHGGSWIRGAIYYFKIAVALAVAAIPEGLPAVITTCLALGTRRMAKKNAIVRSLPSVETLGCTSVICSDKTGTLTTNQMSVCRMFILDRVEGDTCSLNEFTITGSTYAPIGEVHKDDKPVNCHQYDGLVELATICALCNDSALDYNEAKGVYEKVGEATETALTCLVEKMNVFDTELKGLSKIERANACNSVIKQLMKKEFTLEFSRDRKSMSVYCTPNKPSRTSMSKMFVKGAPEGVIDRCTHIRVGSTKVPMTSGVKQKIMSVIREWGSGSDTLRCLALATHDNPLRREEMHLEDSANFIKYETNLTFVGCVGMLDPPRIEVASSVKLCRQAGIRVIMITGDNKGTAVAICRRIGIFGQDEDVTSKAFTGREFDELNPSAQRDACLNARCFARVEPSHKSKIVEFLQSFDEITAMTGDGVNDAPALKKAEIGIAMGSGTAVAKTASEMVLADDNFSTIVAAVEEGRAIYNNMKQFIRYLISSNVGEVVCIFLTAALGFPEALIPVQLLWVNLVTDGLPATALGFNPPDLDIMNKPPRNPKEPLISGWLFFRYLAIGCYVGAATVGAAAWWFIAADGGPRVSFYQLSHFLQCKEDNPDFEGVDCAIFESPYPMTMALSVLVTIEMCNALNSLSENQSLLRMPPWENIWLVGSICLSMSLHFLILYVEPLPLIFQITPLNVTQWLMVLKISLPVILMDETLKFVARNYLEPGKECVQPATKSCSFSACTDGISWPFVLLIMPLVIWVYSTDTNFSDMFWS

[6] = target: proteins of HEK293T cells transiently overexpressing caspase-6 (Homo sapiens, UniProt Q9NNW7); conditions: Probe; protein TXNRD2 Q9NNW7
[7] = target: proteins of HEK293T cells transiently overexpressing caspase-6 (Homo sapiens, UniProt Q99460); conditions: protein PSMD1 (Q99460); exp_ref Probe; analysis C6
[8] = target: proteins of HEK293T cells transiently overexpressing caspase-6 (Homo sapiens, UniProt Q96AG4); conditions: protein LRRC59 (Q96AG4); exp_ref Probe; analysis C6
Sequence of proteins of HEK293T cells transiently overexpressing caspase-6 (Homo sapiens, UniProt Q96AG4) (Q96AG4 whole entry): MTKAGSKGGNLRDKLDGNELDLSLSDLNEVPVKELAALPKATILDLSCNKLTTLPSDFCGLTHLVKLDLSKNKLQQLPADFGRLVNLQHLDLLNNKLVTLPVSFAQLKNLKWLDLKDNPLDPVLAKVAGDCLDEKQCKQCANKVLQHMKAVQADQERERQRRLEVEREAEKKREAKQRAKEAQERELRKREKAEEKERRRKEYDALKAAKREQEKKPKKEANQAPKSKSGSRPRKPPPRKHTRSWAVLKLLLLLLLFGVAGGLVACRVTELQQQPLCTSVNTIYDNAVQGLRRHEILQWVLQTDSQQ

[9] = target: proteins of HEK293T cells transiently overexpressing caspase-6 (Homo sapiens, UniProt P62888); conditions: exp_ref Probe; protein RPL30 (P62888); analysis C6
[10] = target: proteins of HEK293T cells transiently overexpressing caspase-6 (Homo sapiens, UniProt P07737); conditions: exp_ref Probe; protein PFN1 (P07737); analysis C6
Sequence of proteins of HEK293T cells transiently overexpressing caspase-6 (Homo sapiens, UniProt P07737) (P07737 whole entry): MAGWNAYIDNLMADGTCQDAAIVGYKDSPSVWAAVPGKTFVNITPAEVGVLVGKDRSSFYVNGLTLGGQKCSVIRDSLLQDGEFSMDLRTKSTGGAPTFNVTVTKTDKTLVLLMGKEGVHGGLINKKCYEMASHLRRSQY

[11] = target: proteins of HEK293T cells transiently overexpressing caspase-6 (Homo sapiens, UniProt O14979); conditions: exp_ref Probe; protein HNRNPDL (O14979); analysis C6
Sequence of proteins of HEK293T cells transiently overexpressing caspase-6 (Homo sapiens, UniProt O14979) (O14979 whole entry): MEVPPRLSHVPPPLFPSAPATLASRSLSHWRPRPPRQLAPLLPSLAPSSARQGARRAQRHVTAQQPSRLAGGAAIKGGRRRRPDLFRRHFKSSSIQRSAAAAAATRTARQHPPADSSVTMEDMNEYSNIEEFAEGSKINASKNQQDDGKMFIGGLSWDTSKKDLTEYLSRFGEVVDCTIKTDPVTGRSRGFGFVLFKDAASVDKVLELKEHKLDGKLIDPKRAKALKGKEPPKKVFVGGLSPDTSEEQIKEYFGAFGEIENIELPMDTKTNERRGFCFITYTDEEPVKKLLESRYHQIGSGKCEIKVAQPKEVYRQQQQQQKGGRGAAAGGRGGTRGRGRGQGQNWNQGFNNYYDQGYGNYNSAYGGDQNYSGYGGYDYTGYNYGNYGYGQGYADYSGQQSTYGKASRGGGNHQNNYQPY

[12] = target: proteins of HEK293T cells transiently overexpressing caspase-6 (Homo sapiens, UniProt P37802); conditions: exp_ref Probe; protein TAGLN2 (P37802); analysis C6
Sequence of proteins of HEK293T cells transiently overexpressing caspase-6 (Homo sapiens, UniProt P37802) (P37802 whole entry): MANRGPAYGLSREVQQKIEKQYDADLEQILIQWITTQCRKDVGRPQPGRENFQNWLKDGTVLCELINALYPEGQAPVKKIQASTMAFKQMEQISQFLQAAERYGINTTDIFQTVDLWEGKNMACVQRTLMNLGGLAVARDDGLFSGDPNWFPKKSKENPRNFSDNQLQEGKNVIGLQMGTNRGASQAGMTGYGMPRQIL

[13] = target: proteins of HEK293T cells transiently overexpressing caspase-6 (Homo sapiens, UniProt Q9NTK5); conditions: protein OLA1 (Q9NTK5), analysis C6
[14] = target: proteins of HEK293T cells transiently overexpressing caspase-6 (Homo sapiens, UniProt P04183); conditions: exp_ref Probe; protein TK1 (P04183); analysis C6
Sequence of proteins of HEK293T cells transiently overexpressing caspase-6 (Homo sapiens, UniProt P04183) (P04183 whole entry): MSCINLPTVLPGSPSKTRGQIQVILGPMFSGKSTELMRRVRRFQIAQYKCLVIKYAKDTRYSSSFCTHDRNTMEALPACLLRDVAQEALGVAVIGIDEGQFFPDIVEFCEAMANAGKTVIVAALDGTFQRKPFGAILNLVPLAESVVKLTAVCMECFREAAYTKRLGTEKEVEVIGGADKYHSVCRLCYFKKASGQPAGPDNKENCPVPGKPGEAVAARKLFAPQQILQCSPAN

[15] = target: proteins of HEK293T cells transiently overexpressing caspase-6 (Homo sapiens, UniProt Q9P258); conditions: exp_ref Probe; protein RCC2 (Q9P258); analysis C6
[16] = target: proteins of HEK293T cells transiently overexpressing caspase-6 (Homo sapiens, UniProt P14868); conditions: exp_ref Probe; protein DARS (P14868); analysis C6
[17] = target: proteins of HEK293T cells transiently overexpressing caspase-6 (Homo sapiens, UniProt Q99497); conditions: exp_ref Probe; protein PARK7 (Q99497); analysis C6
Sequence of proteins of HEK293T cells transiently overexpressing caspase-6 (Homo sapiens, UniProt Q99497) (Q99497 whole entry): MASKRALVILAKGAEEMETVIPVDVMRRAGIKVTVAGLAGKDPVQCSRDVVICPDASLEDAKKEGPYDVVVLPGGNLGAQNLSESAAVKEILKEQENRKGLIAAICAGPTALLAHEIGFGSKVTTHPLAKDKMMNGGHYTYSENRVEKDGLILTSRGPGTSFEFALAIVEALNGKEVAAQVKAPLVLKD

[18] = target: proteins of HEK293T cells transiently overexpressing caspase-6 (Homo sapiens, UniProt P08238); conditions: exp_ref Probe; protein HSP90AB1 (P08238); analysis C6
Sequence of proteins of HEK293T cells transiently overexpressing caspase-6 (Homo sapiens, UniProt P08238) (P08238 whole entry): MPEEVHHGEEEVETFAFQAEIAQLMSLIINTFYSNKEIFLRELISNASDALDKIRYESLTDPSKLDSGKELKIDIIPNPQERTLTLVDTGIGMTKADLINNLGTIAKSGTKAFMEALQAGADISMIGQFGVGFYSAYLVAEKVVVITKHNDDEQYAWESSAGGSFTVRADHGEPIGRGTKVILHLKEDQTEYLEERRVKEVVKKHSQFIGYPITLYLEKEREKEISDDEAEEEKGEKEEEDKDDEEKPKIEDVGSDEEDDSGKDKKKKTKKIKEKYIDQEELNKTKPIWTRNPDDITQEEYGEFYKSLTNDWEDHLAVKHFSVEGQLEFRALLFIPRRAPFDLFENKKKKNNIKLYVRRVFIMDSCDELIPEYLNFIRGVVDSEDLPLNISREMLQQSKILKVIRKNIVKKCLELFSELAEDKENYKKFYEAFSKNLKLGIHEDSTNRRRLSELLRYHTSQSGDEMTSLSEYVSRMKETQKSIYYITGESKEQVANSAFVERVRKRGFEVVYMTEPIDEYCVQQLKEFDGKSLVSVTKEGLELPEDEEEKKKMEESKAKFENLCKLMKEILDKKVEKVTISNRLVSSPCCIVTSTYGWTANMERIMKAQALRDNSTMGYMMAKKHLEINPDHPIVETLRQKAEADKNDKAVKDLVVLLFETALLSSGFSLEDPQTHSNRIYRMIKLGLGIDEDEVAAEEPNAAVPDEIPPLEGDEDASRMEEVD

[19] = target: proteins of HEK293T cells transiently overexpressing caspase-6 (Homo sapiens, UniProt O96008); conditions: exp_ref Probe; protein TOMM40 (O96008); analysis C6
Sequence of proteins of HEK293T cells transiently overexpressing caspase-6 (Homo sapiens, UniProt O96008) (O96008 whole entry): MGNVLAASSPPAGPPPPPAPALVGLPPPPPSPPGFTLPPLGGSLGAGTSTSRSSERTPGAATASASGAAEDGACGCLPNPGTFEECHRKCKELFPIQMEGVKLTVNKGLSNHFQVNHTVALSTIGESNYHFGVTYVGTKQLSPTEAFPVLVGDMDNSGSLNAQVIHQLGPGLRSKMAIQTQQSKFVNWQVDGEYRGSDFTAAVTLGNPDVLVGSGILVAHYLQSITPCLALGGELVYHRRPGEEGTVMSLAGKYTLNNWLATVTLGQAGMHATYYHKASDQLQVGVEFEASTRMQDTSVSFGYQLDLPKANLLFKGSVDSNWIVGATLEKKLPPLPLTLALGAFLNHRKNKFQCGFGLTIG

C#CCOc1ccc([C@@H]2C[C@@H](C(=O)Nc3ccc(OC(F)(F)F)cc3)CN(S(=O)(=O)C=C)C2)cc1 (relative stereo) [13-t]
enrich.exp.med.lin ([1]; Expt Probe): 5.762 | enrich.exp.med.log2 ([1]; Expt Probe): 2.527 | enrich.exp.med ([1]; exp_ref Probe): 2.527 | enrich.exp.med [2]: 0.3273 | enrich.exp.med ([3]; exp_ref Probe, analysis C6): -0.2903 | enrich.exp.med.lin [3]: 0.8177 | enrich.exp.med.log2 [3]: -0.2903 | enrich.exp.med [4]: -0.4971 | enrich.exp.med.lin [5]: 2.861 | enrich.exp.med.log2 [5]: 1.516 | enrich.exp.med ([5]; exp_ref Probe, analysis C6): 1.516 | enrich.exp.med [6]: -0.4404 | enrich.exp.med [7]: 1.73 | enrich.exp.med [8]: 2.108 | enrich.exp.med [9]: 0.3258 | enrich.exp.med [10]: -0.1003 | enrich.exp.med [11]: -0.3286 | enrich.exp.med [12]: 0.7525 | enrich.exp.med.lin ([13]; Expt Probe): 6.528 | enrich.exp.med.log2 ([13]; Expt Probe): 2.707 | enrich.exp.med ([13]; exp_ref Probe): 2.707 | enrich.exp.med [14]: 1.0337 | enrich.exp.med [15]: 0.2232 | enrich.exp.med [16]: 0.4884 | enrich.exp.med [17]: 0.478 | enrich.exp.med [18]: 0.3736 | enrich.exp.med [19]: 0.5045
